Target: T1, Hormone-sensitive lipase (HSL) (Homo sapiens, UniProt Q05469)
T1 construct: made in house
T1 sequence (Q05469 1-1076): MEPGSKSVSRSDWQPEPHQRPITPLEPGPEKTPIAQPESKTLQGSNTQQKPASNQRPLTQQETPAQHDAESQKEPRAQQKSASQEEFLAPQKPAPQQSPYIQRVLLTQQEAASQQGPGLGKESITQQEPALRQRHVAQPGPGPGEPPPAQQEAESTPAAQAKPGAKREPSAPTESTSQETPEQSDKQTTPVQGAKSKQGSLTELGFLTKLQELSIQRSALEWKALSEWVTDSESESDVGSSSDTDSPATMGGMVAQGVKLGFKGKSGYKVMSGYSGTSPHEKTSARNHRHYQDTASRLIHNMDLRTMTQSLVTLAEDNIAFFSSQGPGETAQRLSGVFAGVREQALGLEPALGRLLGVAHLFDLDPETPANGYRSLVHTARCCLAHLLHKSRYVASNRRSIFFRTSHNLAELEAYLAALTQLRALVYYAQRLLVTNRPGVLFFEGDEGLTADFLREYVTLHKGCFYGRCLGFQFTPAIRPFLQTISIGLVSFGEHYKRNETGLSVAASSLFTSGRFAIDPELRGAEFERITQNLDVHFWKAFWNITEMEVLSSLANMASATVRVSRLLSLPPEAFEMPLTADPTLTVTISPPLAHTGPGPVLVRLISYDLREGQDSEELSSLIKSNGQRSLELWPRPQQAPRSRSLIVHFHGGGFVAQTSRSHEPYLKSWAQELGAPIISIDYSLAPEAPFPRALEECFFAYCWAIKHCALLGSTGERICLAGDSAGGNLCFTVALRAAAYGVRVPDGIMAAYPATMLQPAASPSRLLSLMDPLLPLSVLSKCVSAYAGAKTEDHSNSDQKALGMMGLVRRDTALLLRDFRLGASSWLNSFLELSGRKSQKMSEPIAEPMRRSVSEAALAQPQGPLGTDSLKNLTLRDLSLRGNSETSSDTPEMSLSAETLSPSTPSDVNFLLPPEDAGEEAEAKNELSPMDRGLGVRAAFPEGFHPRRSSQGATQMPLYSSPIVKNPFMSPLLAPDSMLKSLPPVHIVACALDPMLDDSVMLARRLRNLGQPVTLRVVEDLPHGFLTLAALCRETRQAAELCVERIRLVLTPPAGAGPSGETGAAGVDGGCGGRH
Experiment: 3190.1: percent inhibition of hormone sensitive lipase at 10 μM (fluorochrome-labeled triacylglyceride emulsion)
Type: biochemical
Conditions: % activity relative to non-inhibited sample; 10 μM sample concentration; 30 min pre-incubation at 25° C., 120 min incubation at 37° C.; read-out: 3190.1 HSL_FL % ACTIVITY (%)
Excerpt: Materials. The Hormone-sensitive lipase was provided by Dr. Cecilia Holm, from Lund University Sweden or produced and purified by Novo Nordisk (NN) using the reagents and protocols used by Dr. Holm. The substrates used are: ^3H-labeled triolein (TO) from Amersham, Buckinghamshire, U.K. cat No. TRA191; 5-20 Ci/mmol dissolved in toluene, triolein (Sigma, Cat. No. T-1740), fluorochrome-labeled triacylglyceride (cis-octadec-9-enoic acid 2-[12-(7-nitrobenzo[1,2,5]oxadiazol-4-ylamino)dodecanoyloxy]-1-cis-octadec-9-enoyloxymethyl-ethyl ester) prepared by Novo Nordisk (NN) by conventional methods, and 1,3-(di[^3H]-stearin), 2-(PEG-Biotin)glycerol prepared in collaboration with Amersham Pharmacia Biotech, UK and described in WO 01/073442. Phosphatidyl choline (PC) and phosphatidyl inositol (PI) are from Sigma (St Luis Mo. cat. Nos. P-3556 and P-5954 respectively). All other reagents are of commercial grade and obtained from various commercial sources.
3190.1: Assay for determination of percent inhibition of hormone sensitive lipase by compound at 10 μM sample concentration.
A lipid emulsion with fluorochrome-labeled triacylglyceride and phospholipid is used as substrate with a standard concentration of highly purified HSL (12 μg/mL initial concentration corresponding to 600 ng/mL final concentration). BSA is added as product acceptor. The transfer of the fluorochrome from the lipid phase to the water (BSA) phase changes the fluorescent properties of the fluorochrome. The changes can be monitored on a fluorimeter with an excitation wavelength of 450 nm and an emission wavelength of 545 nm.
Compound and HSL (20 μL compound, 10 μL enzyme and 70 μL PED-BSA buffer) is pre-incubated for 30 min at 25° C. before addition of substrate (100 μL). Amount of formed product is measured after 120 min incubation at 37° C.
Results are given as percent activity relative to a non-inhibited sample (no compound).

Row | SMILES | activity at 10 µM
1 | CN(C(=O)Oc1ccc(NC(=O)c2ccc(CN3CCCCC3)cc2)cc1)c1ccccc1 [Example 1, Methyl-phenyl-carbamic acid 4-(4-piperidin-1-ylmethyl-benzoylamino)-phenyl ester] | 4%
2 | CN(C(=O)Oc1ccc(NC(=O)c2ccc(CN3CCOCC3)cc2)cc1)c1ccccc1 [Example 2, Methyl-phenyl-carbamic acid 4-(4-morpholin-4-ylmethyl-benzoylamino)-phenyl ester] | 4%
3 | CC1CCN(Cc2ccc(C(=O)Nc3ccc(OC(=O)N(C)c4ccccc4)cc3)cc2)CC1 [Example 3, Methyl-phenyl-carbamic acid 4-[4-(4-methyl-piperidin-1-ylmethyl)-benzoylamino]-phenyl ester] | 2%

— patent US20060148799A1, “Substituted p-phenyl carbamates” (Novo Nordisk A/S, priority 2003, published 2006)
